Laboratory results: US4578475A, “Novel D-homosteroids” (Hoffman-La Roche Inc., priority 1983, dated 1986)
Each block holds one molecule with its values, some of them ahead of it.

Key:
[1] = target: T1, Δ^5 -isomerase/3β-hydroxysteroid dehydrogenase (Rattus norvegicus, UniProt P22071); assay: Inhibition of the formation of progesterone in vitro (14C-pregnenolone, rat ovary microsomes); type: biochemical; conditions: 0.5 μg protein, 250 pmol 14C-pregnenolone, 0.4 mg NAD+, 30 minutes, 37° C., pH 7.4, read-out: IC50 (concentration of the test substance at which the enzyme activity amounts to 50% of the maximum value)
T1 construct: from tissue; host or cells: rat ovary microsomes
T1 sequence (P22071 1-373): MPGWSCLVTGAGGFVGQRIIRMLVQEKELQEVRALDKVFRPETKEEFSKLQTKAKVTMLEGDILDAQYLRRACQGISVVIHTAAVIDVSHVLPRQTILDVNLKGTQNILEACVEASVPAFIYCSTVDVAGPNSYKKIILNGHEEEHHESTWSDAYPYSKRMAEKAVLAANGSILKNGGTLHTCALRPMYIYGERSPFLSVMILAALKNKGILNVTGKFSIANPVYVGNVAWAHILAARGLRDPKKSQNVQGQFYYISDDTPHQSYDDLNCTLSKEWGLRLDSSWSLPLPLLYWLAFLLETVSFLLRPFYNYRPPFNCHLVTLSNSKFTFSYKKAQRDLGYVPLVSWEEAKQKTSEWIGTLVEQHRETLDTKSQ
Description: The activity of the D-homosteroids of formula I as inhibitors of Δ^5 -isomerase/3β-hydroxysteroid dehydrogenase was determined in the following experimental procedures:
Rat overies were homogenized in 0.05 M Na2 HPO4 buffer (pH 7.2) which contained 0.25 M sucrose and 0.05 M dithiothreitol. The microsomes obtained after centrifugation were suspended in 0.05 M Na2 HPO4 buffer (pH 7.4) which contained 0.001 M EDTA. This microsome preparation was assayed firstly for enzymatic activity by measuring the increase of the optical density at 340 nm by the reduction of NAD^+. Thereafter, aliquot portions (0.5 μg of protein) were incubated in 1.8 ml of buffer for 30 minutes at 37° C. with 250 pmol of ^14 C-pregnelonone, 0.4 mg of NAD^+ and different concentrations of the test substance dissolved in the minimum amounts of dimethyl sulphoxide. The reaction was interrupted by the addition of methylene chloride. After extraction and evaporation of the solvent, the radioactive metabolites were separated on silica gel-aluminium plates with benzene/acetone (85:15). The radioactivity was measured by means of a scintillation counter.

[2] = system: pregnant female albino rats; assay: Interceptive activity in rats (pregnant rats, serum progesterone, living foetuses, resorptions, vacant implantation positions); type: in vivo, rat; conditions: for Serum progesterone 3 h later: orally or intramuscularly on 10th day of pregnancy; for Living foetuses, n (number of animals) / Living foetuses, x (mean of the observations) / Resorption, n (number of animals) / Resorption, x (mean of the observations) / Vacant implantation positions, n (number of animals) / Vacant implantation positions, x (mean of the observations): orally or intramuscularly on 10th day, killed on 15th day
Source text: Female albino rats were kept under controlled conditions, the synchronicity of the cycle being monitored by daily vaginal douching and subsequent cytological investigation. At proestrus the animals were brought together with male, fertile rats. The successful insemination was checked on the following morning and this day was denoted as the 1st day of the pregnancy. The pregnant animals then received the test substances as a suspension in a standard vehicle (0.5% carboxymethylcellulose, 0.4% TWEEN 80, 0.9% benzyl alcohol and 0.9% NaCl in water) orally or intramuscularly on the 10th day. The animals were killed on the 15th day. The blood was collected and the uteri were investigated for living foetuses, resorptions and vacant implantation positions. The serum hormone concentrations were determined radio-immunologically.

Structure (SMILES): CC1(C)C2=CC[C@@H]3[C@H](CC[C@@]4(C)[C@H]3CC=C[C@]4(C)O)[C@@]2(C)Cc2cn[nH]c21 [Example 6, 4,4,17a-trimethyl-2'H-D-homo-androsta-2,5,16-trieno[3,2-c]-pyrazol-17aβ-ol]
- IC50 [1]: 0.4 nM

Structure (SMILES): CC1(C)C2=CC[C@H]3[C@@H]4CC=C[C@H](O)[C@@]4(C)CC[C@@H]3[C@@]2(C)Cc2cn[nH]c21 [Example 5, 4,4-dimethyl-2'H-D-homo-androsta-2,5,16-trieno[3,2-c]pyrazol-17aβ-ol]
- IC50 [1]: 0.8 nM

Structure (SMILES): CC1(C)C(=O)[C@H](C#N)C[C@@]2(C)C1=CC[C@@H]1[C@@H]2CC[C@@]2(C)[C@H]1CCC[C@]2(C)O [Example 14, 17aβ-hydroxy-4,4,17a-trimethyl-3-oxo-D-homo-androst-5-ene-2a-carbonitrile]
- Serum progesterone 3 h later ([2]; 7.5 mg/kg): 20 ng/mL
- Living foetuses, n (number of animals) ([2]; 7.5 mg/kg): 1
- Living foetuses, x (mean of the observations) ([2]; 7.5 mg/kg): 3
- Resorption, n (number of animals) ([2]; 7.5 mg/kg): 3
- Resorption, x (mean of the observations) ([2]; 7.5 mg/kg): 12
- Vacant implantation positions, n (number of animals) ([2]; 7.5 mg/kg): 4
- Vacant implantation positions, x (mean of the observations) ([2]; 7.5 mg/kg): 12
- Serum progesterone 3 h later ([2]; 15 mg/kg): 20 ng/mL
- Living foetuses, n (number of animals) ([2]; 15 mg/kg): 1
- Living foetuses, x (mean of the observations) ([2]; 15 mg/kg): 12
- Resorption, n (number of animals) ([2]; 15 mg/kg): 3
- Resorption, x (mean of the observations) ([2]; 15 mg/kg): 14
- Vacant implantation positions, n (number of animals) ([2]; 15 mg/kg): 4
- Vacant implantation positions, x (mean of the observations) ([2]; 15 mg/kg): 13

Structure (SMILES): CC1(C)C(=O)[C@H](C#N)C[C@@]2(C)C1=CC[C@@H]1[C@@H]2CC[C@@]2(C)[C@H]1CC=C[C@@]21CCC(=O)O1 [Example 19, 2α-cyano-4,4-dimethyl-3-oxo-D-homo-17aα-pregna-5,16-diene-21,17a-carbolactone]
- Serum progesterone 3 h later ([2]; 15 mg/kg): 9 ng/mL
- Living foetuses, n (number of animals) ([2]; 15 mg/kg): 0
- Resorption, n (number of animals) ([2]; 15 mg/kg): 0
- Vacant implantation positions, n (number of animals) ([2]; 15 mg/kg): 8
- Vacant implantation positions, x (mean of the observations) ([2]; 15 mg/kg): 13

Structure (SMILES): CC1(C)C2=CC[C@@H]3[C@H](CC[C@@]4(C)[C@H]3CCC[C@]4(C)O)[C@@]2(C)Cc2cnoc21 [Example 3, 4,4,17a-trimethyl-D-homo-androsta-2,5-dieno[2,3-d]-isoxazol-17aβ-ol]
- Serum progesterone 3 h later ([2]; 7.5 mg/kg): 25 ng/mL
- Living foetuses, n (number of animals) ([2]; 7.5 mg/kg): 4
- Living foetuses, x (mean of the observations) ([2]; 7.5 mg/kg): 9
- Resorption, n (number of animals) ([2]; 7.5 mg/kg): 5
- Resorption, x (mean of the observations) ([2]; 7.5 mg/kg): 6
- Vacant implantation positions, n (number of animals) ([2]; 7.5 mg/kg): 2
- Vacant implantation positions, x (mean of the observations) ([2]; 7.5 mg/kg): 3
- Serum progesterone 3 h later ([2]; 15 mg/kg): 29 ng/mL
- Living foetuses, n (number of animals) ([2]; 15 mg/kg): 4
- Living foetuses, x (mean of the observations) ([2]; 15 mg/kg): 9
- Resorption, n (number of animals) ([2]; 15 mg/kg): 6
- Resorption, x (mean of the observations) ([2]; 15 mg/kg): 3
- Vacant implantation positions, n (number of animals) ([2]; 15 mg/kg): 3
- Vacant implantation positions, x (mean of the observations) ([2]; 15 mg/kg): 13

- IC50 [1]: 6 nM
Structure (SMILES): CCCCC1(O)C=CCC2C3CC=C4C(C)(C)c5[nH]ncc5CC4(C)C3CCC21C [Example 7, 17a-butyl-4,4-dimethyl-2'H-D-homo-androsta-2,5,16-trieno[3,2-c]pyrazol-17aβ-ol]

Structure (SMILES): CC(=O)OC1=C(C#N)C[C@]2(C)[C@H]3CC[C@]4(C)[C@@H](OC(C)=O)C=CC[C@H]4[C@@H]3CC[C@]23O[C@H]13 [Example 22, 3,17aβ-diacetoxy-4α,5α-epoxy-D-homo-5α-androsta-2,16-diene-2-carbonitrile]
- IC50 [1]: 0.9 nM

Structure (SMILES): CC1(C)C2=CC[C@@H]3[C@H](CC[C@@]4(C)[C@H]3CC=C[C@]4(C)O)[C@@]2(C)Cc2cnoc21 [Example 2, 4,4,17a-trimethyl-D-homo-androsta-2,5,16-trieno[2,3-d]isoxazol-17aβ-ol]
- Serum progesterone 3 h later ([2]; 3.75 mg/kg): 87 ng/mL
- Living foetuses, n (number of animals) ([2]; 3.75 mg/kg): 3
- Living foetuses, x (mean of the observations) ([2]; 3.75 mg/kg): 12
- Resorption, n (number of animals) ([2]; 3.75 mg/kg): 2
- Resorption, x (mean of the observations) ([2]; 3.75 mg/kg): 9
- Vacant implantation positions, n (number of animals) ([2]; 3.75 mg/kg): 2
- Vacant implantation positions, x (mean of the observations) ([2]; 3.75 mg/kg): 13
- Serum progesterone 3 h later ([2]; 7.5 mg/kg): 39 ng/mL
- Living foetuses, n (number of animals) ([2]; 7.5 mg/kg): 0
- Resorption, n (number of animals) ([2]; 7.5 mg/kg): 0
- Vacant implantation positions, n (number of animals) ([2]; 7.5 mg/kg): 6
- Vacant implantation positions, x (mean of the observations) ([2]; 7.5 mg/kg): 13
- Serum progesterone 3 h later ([2]; 15 mg/kg): 35 ng/mL
- Living foetuses, n (number of animals) ([2]; 15 mg/kg): 0
- Resorption, n (number of animals) ([2]; 15 mg/kg): 0
- Vacant implantation positions, n (number of animals) ([2]; 15 mg/kg): 6
- Vacant implantation positions, x (mean of the observations) ([2]; 15 mg/kg): 12

- IC50 [1]: 7 nM
Structure (SMILES): C[C@]1(O)C=CC[C@H]2[C@@H]3CC[C@@]45O[C@]4(C)C(=O)[C@H](C#N)C[C@]5(C)[C@H]3CC[C@@]21C [Example 25, 4α, 5-epoxy-17aβ-hydroxy-4,17a-dimethyl-3-oxo-D-homo-5α-androst-16-ene-2α-carbonitrile]

- IC50 [1]: 6 nM
Structure (SMILES): CC(=O)O[C@H]1C=CC[C@H]2[C@@H]3CC=C4C(C)(C)c5nn(C(C)=O)cc5C[C@]4(C)[C@H]3CC[C@]12C [Example 12, 1'-acetyl-4,4-dimethyl-1'H-D-homo-androsta-5,16-dieno[3,2-c]pyrazol-17aβ-yl acetate]

Structure (SMILES): CC1(C)C(=O)C(=CNO)C[C@@]2(C)C1=CC[C@@H]1[C@@H]2CC[C@@]2(C)[C@H]1CC=C[C@]2(C)O [Example 21, 17aβ-hydroxy-2-[(hydroxyamino)methylene]-4,4,17a-trimethyl-D-homo-androsta-5,16-dien-3-one]
- Serum progesterone 3 h later ([2]; 7.5 mg/kg): 24 ng/mL
- Living foetuses, n (number of animals) ([2]; 7.5 mg/kg): 3
- Living foetuses, x (mean of the observations) ([2]; 7.5 mg/kg): 6
- Resorption, n (number of animals) ([2]; 7.5 mg/kg): 6
- Resorption, x (mean of the observations) ([2]; 7.5 mg/kg): 10
- Vacant implantation positions, n (number of animals) ([2]; 7.5 mg/kg): 2
- Vacant implantation positions, x (mean of the observations) ([2]; 7.5 mg/kg): 10
- Serum progesterone 3 h later ([2]; 15 mg/kg): 17 ng/mL
- Living foetuses, n (number of animals) ([2]; 15 mg/kg): 1
- Living foetuses, x (mean of the observations) ([2]; 15 mg/kg): 15
- Resorption, n (number of animals) ([2]; 15 mg/kg): 0
- Vacant implantation positions, n (number of animals) ([2]; 15 mg/kg): 6
- Vacant implantation positions, x (mean of the observations) ([2]; 15 mg/kg): 13

- IC50 [1]: 6.5 nM
Structure (SMILES): CC1(C)C(=O)[C@H](C#N)C[C@@]2(C)C1=CC[C@@H]1[C@@H]2CC[C@@]2(C)[C@H]1CC=C[C@]2(C)O [Example 17, 17aβ-hydroxy-4,4,17a-trimethyl-3-oxo-D-homo-androsta-5,16-diene-2α-carbonitrile]
- Serum progesterone 3 h later ([2]; 3.75 mg/kg): 32 ng/mL
- Living foetuses, n (number of animals) ([2]; 3.75 mg/kg): 2
- Living foetuses, x (mean of the observations) ([2]; 3.75 mg/kg): 5
- Resorption, n (number of animals) ([2]; 3.75 mg/kg): 5
- Resorption, x (mean of the observations) ([2]; 3.75 mg/kg): 11
- Vacant implantation positions, n (number of animals) ([2]; 3.75 mg/kg): 1
- Vacant implantation positions, x (mean of the observations) ([2]; 3.75 mg/kg): 13
- Serum progesterone 3 h later ([2]; 7.5 mg/kg): 29 ng/mL
- Living foetuses, n (number of animals) ([2]; 7.5 mg/kg): 0
- Resorption, n (number of animals) ([2]; 7.5 mg/kg): 2
- Resorption, x (mean of the observations) ([2]; 7.5 mg/kg): 15
- Vacant implantation positions, n (number of animals) ([2]; 7.5 mg/kg): 4
- Vacant implantation positions, x (mean of the observations) ([2]; 7.5 mg/kg): 11
